Test [1] concerns the target T1, WT αSN oligomer (inter-protomeric) FRET biosensor in HEK293 cells (Homo sapiens, UniProt P37840).
T1 construct: In addition to full-length αSN fusion constructs, we observe both C-terminally and N-terminally truncated αSN species; expressed in transfected cells; host or cells: HEK293
The test is described as follows: FLT dose response, WT oligomer (inter-protomeric) FRET biosensor. The class given is cell-based. The following applies: 1 nM to 50 μM. The protocol:
(§1) Hits from the pilot HTS of the LOPAC library were selected and dispensed into 384-well plates to verify reproducible and specific FLT trends using the WT and A53T oligomer (inter-protomeric) FRET biosensors. Figure 6 presents a subset of these dose-response curves for hit compounds RO, BAY, SB206553, and DEM, along with known control compound EGCG. […] Assay quality was determined by Z′ (Eq. 2) where a Z′ > 0.5 indicates good assay quality. Using EGCG as control compound and the hit DEM, we calculated Z′ value of 0.76 and 0.66, respectively, indicating excellent assay quality.
(§2) Fig. 6 FRET dose response of pilot HTS hits. A subset of hits were evaluated using both WT (a) and A53T (b) oligomer biosensor to verify both increased FLT (disrupting αSN–αSN interactions) and decreased FLT (tighter aggregation or remodeled oligomers).
(§3) Compounds were tested in a FLT dose-response assay. The compound was dissolved to 10 mM in DMSO, then serially diluted in 96-well mother plates. Each hit was re-screened for FLT dose response across eight concentrations (1 nM to 50 μM). Compounds (0.5 μL) were transferred from mother plates into assay plates using a Mosquito HV liquid handler (TTP Labtech Ltd, UK). The preparations for αSN FRET biosensors were carried out as above.

The target of test [2] is T2, A53T αSN oligomer (inter-protomeric) FRET biosensor in HEK293 cells (Homo sapiens, UniProt P37840, A53T).
T2 construct: In addition to full-length αSN fusion constructs, we observe both C-terminally and N-terminally truncated αSN species; expressed in transfected cells; host or cells: HEK293
As to the kind of experiment: FLT dose response, A53T oligomer (inter-protomeric) FRET biosensor. The note with it: 1 nM to 50 μM. In kind it is cell-based. On the procedure: as §1, §2, §3

The target of another test is T3, recombinant αSN (Homo sapiens, UniProt P37840).
T3 construct: made in house; host or cells: Escherichia coli BL21(DE3), T7-7 plasmid
As to the kind of experiment: Non-seeded Thioflavin-T assay (monomer induced aggregation). The class given is biochemical. The following applies: 140 μM αSN monomer, 70 μM compound (1:2), 900 RPM, 37 °C. On the procedure:
ThT aggregation assays monitor the kinetics and extent of fibril formation due to spontaneous and seeded aggregation[26],[92]–[95]. The cascade of spontaneous αSN fibrillization includes formation and maturation of oligomeric αSN assemblies[96],[97]. Figure 10 presents spontaneous ThT aggregation for αSN(m) (140 µM) with or without hit compounds RO, DEM, and Bay (70 µM; a sub-stoichiometric ratio, 1:2, compound:protein).
Fig. 10 Monomer induced aggregation of αSN (non-seeded Thioflavin-T assay). Recombinant αSN was incubated at 140 μM monomer (70 μM compound) under continuous shaking (900 RPM) at 37 °C. All three hit compounds modulated αSN fibrillization with RO having a more significant effect over Bay and DEM, respectively.
ThT (Sigma, product no. T3516) was dissolved in PBS buffer and was filtered through a 0.2-µm syringe filter to make a stock solution of 2.5 mM. Working ThT concentration was 20 µM. PFF seeds were produced via constant agitation of 1000 RPM at 37 °C (ThermoMixer-C, Eppendorf, Hauppauge, NY) of 500 µL of 350 µM αSN in PBS in a 2 mL tube for 5 days. PFFs were aliquoted and flash frozen and stored at −80 °C until further use. PFF seeds were rapidly thawed, diluted to 35 µM in PBS, and sonicated 120 pulses at 50% using a probe-tip sonicator following the established protocols. Master mix samples for each of the different ThT assays were prepared and dispensed in triplicate as 50 µL in 384-well flat, black-bottom polypropylene plates (PN 781209, Greiner Bio-One) and sealed with fluorescently transparent film. Conditions for non-seeded, seeded, and cell homogenate assays varied slightly.
Non-seeded ThT master mix was prepared in cell culture PBS with 140 µM (2 mg/mL) αSN(m) and dispensed into compound plates at 70 µM final compound concentration (1:2 compound:protein ratio).

The target of a further test is T4, 3FY-αSN (monomeric αSN) (Homo sapiens, UniProt P37840).
T4 construct: made in house
As to the kind of experiment: Protein-observed fluorine NMR (PrOF NMR). The class given is binding. The note with it: for 19F chemical shifts / resonance broadening on titration: 20 μM 3FY-αSN, compound titration. The protocol:
PrOF NMR provides a perturbation-free method to monitor αSN conformation and structure through the incorporation of F19-labeled 3-fluoro-Tyrosine into recombinant protein[89].
Experiments were run on a Bruker 600-MHz Avance NEO (6001), equipped with a 5 mm triple resonance cryoprobe. 3FY-αSN was diluted in PBS, pH = 7.4 buffer by the addition of D2O and 0.1% trifluoroacetic acid (TFA) to final concentrations of 5 and 0.07%, respectively, in a total NMR sample volume of 150 µL. Two one-dimensional ^19F NMR spectra were taken of the protein sample at an O1P of −75 ppm, NS = 16, D1 = 1 s, and AQ = 0.5 s (TFA reference set to −75.25 ppm) and an O1P of −136 ppm, NS = 3072, D1 = 0.6 s, and AQ = 0.05 s (protein resonances). Ligand stock solutions of 1–10 mM were prepared in DMSO and titrated into the protein solutions (20 μM). As a control experiment, in a separate NMR tube, DMSO was added to a final concentration of 0.5, 0.6, 0.8, 1.5, and 2.5% to control for any solvent-induced chemical shifts. For each concentration, a TFA reference spectrum and a protein 1D-^19F NMR spectrum were acquired.
Supplemental Figure 20. PrOF NMR experiments with hit compounds and fluorinated αSN support a lack of binding to monomeric αSN. (a) 19F NMR spectrum and assignments of 3FY- αSN. The resulting spectrum is consistent with the spectrum of monomeric 3FY- αSN reported by 4. Corresponding assignments are used from that report. Stacked 19F NMR spectra with an increasing concentration of (b) Ro 90-7501 and (c) DEM HCl […]
compound binding to monomeric αSN. An exception is at high concentrations of Ro 90-7501(110 μM) a small degree of chemical shift perturbation is observed.
(1 picture or pasted object on this page, not shown here)

These results are taken from paper PMC8238948, “Potent inhibitors of toxic alpha-synuclein identified via cellular time-resolved FRET biosensors” (NPJ Parkinson's Disease, 2021).

The structures appear in SMILES notation. Where a name gives a salt, the structure may show the parent alone.

On to `COC(=O)C1=C(C)NC(C)=C([N+](=O)[O-])C1c1ccccc1C(F)(F)F` (racemic) [BAY, (±)-Bay K 8644], for which the “FLT trend in dose response” value in test [1] and in test [2] was “reduced FLT” each time. Also, the “ThT signal, spontaneous (non-seeded) aggregation” value on recombinant αSN is “lesser degrees of attenuation”.

`Nc1ccc(-c2nc3ccc(-c4nc5ccc(N)cc5[nH]4)cc3[nH]2)cc1` [RO, Ro 90–7501]: the “19F chemical shift perturbation at high concentration” value at 3FY-αSN (monomeric αSN) (20 µM 3FY-αSN, 110 μM compound) is reported as “small degree of chemical shift perturbation”. Also, the “19F chemical shifts / resonance broadening on titration” value at 3FY-αSN (monomeric αSN) is “no significant chemical shifts or resonance broadening”. Also, the “FLT trend in dose response” value in test [1] and in test [2] was “reduced FLT” each time. In addition, the “ThT signal, spontaneous (non-seeded) aggregation” value at recombinant αSN is “significant ThT signal reduction”.

Turning to `CN(C)[C@@H]1C(O)=C(C(N)=O)C(=O)[C@@]2(O)C(O)=C3C(=O)c4c(O)ccc(Cl)c4[C@@H](O)[C@H]3C[C@@H]12` [DEM, Demeclocycline HCl], the “19F chemical shifts / resonance broadening on titration” value on 3FY-αSN (monomeric αSN) was “no significant chemical shifts or resonance broadening”. Also, the “FLT trend in dose response” value in test [1] and in test [2] was “reduced FLT” throughout. For the same compound, at recombinant αSN, the “ThT signal, spontaneous (non-seeded) aggregation” value is given as “lesser degrees of attenuation”.
